Data from US20070134315A1, “Orally administrable extended release pellet and tablet formulations of a highly water soluble compound” (priority 2005, published 2007).
In brackets after ≈: the same amount, converted by molar mass.

Assays:
[1] = Water solubility of isovaleramide and dose number; format: physicochemical
Protocol: The water solubility of the drug substance as used herein, is defined according to its dose number, Do, for oral drug delivery. The dose number for a drug is defined by the ratio of its dose concentration to its saturation solubility in a reference fluid according to the following calculation: [formula]
where: Mo is the dose of the drug (mg), Vo is the reference fluid volume (mL) and Cs is the saturation solubility of the drug in the reference fluid (mg/mL) at 37° C. Representative reference fluids for oral drug delivery are aqueous based solutions within the relevant physiologic pH range of the gastrointestinal tract (i.e., pH 1-pH 7.5). A representative reference fluid volume for oral drug delivery is 250 mL. A drug substance is considered to be highly soluble if at its highest dose the Do value is ≦1. […] The solubility of isovaleramide in water at 37° C. is approximately 70 mg/mL. The upper range of a single daily dose of isovaleramide could be 1200 mg to 2400 mg. The Do number range for isovaleramide, calculated using a reference volume of 250 mL and the single daily dose range of 1200 mg to 2400 mg, is 0.07 to 0.14.

[2] = Isothermal thermogravimetric analysis (TGA) of sublimation; format: physicochemical
Protocol: The temperature dependent physical instability of the drug substance was studied in detail in order to determine the appropriate pharmaceutical formulation processes and temperature ranges suitable for the preparation of the pharmaceutical compositions of isovaleramide. An automated thermogravimetric analysis (TGA) method was used to determine the relative rates of isovaleramide sublimation. Isothermal TGA was conducted at 30° C., 35° C., 40° C., 45° C., 50° C. and 60° C. for 24 hours. Samples were prepared by first taring a platinum TGA pan on the TGA system. A sample amount of isovaleramide of 10 mg-15 mg was then added to the pan and distributed evenly. The sample pan was then loaded onto the TGA autosampler for subsequent analysis. Samples were initially equilibrated at their respective isothermal temperature and then monitored for 24 hours. Data sampling was accomplished at a rate of 600 seconds/point. Sample replicates ranged from 1 to 3. TGA instrument and operating conditions were as follows: […]

CC(C)CC(N)=O [Isovaleramide, isovaleramide]
pH dependence of solubility ([1]; physiologic pH range of the gastrointestinal tract): pH independent solubility | solubility ([1]; water, 37° C.): ~70 mg/mL (≈ 692 mM) | Reduction in Weight % ([2]; isothermal 30° C., 1 hr): 0.05% | Reduction in Weight % ([2]; isothermal 30° C., 3 hr): 0.12% | Reduction in Weight % ([2]; isothermal 30° C., 6 hr): 0.25% | Reduction in Weight % ([2]; isothermal 30° C., 9 hr): 0.41% | Reduction in Weight % ([2]; isothermal 30° C., 12 hr): 0.62% | Reduction in Weight % ([2]; isothermal 30° C., 15 hr): 0.82% | Reduction in Weight % ([2]; isothermal 30° C., 18 hr): 1.01% | Reduction in Weight % ([2]; isothermal 30° C., 21 hr): 1.20% | Reduction in Weight % ([2]; isothermal 30° C., 24 hr): 1.32% | Reduction in Weight % ([2]; isothermal 35° C., 1 hr, mean of three): 0.10% | Reduction in Weight % ([2]; isothermal 35° C., 3 hr, mean of three): 0.28% | Reduction in Weight % ([2]; isothermal 35° C., 6 hr, mean of three): 0.55% | Reduction in Weight % ([2]; isothermal 35° C., 9 hr, mean of three): 0.83% | Reduction in Weight % ([2]; isothermal 35° C., 12 hr, mean of three): 1.12% | Reduction in Weight % ([2]; isothermal 35° C., 15 hr, mean of three): 1.41% | Reduction in Weight % ([2]; isothermal 35° C., 18 hr, mean of three): 1.67% | Reduction in Weight % ([2]; isothermal 35° C., 21 hr, mean of three): 1.92% | Reduction in Weight % ([2]; isothermal 35° C., 24 hr, mean of three): 2.17% | Reduction in Weight % ([2]; isothermal 40° C., 1 hr, mean of three): 0.14% | Reduction in Weight % ([2]; isothermal 40° C., 3 hr, mean of three): 0.53% | Reduction in Weight % ([2]; isothermal 40° C., 6 hr, mean of three): 1.10% | Reduction in Weight % ([2]; isothermal 40° C., 9 hr, mean of three): 1.65% | Reduction in Weight % ([2]; isothermal 40° C., 12 hr, mean of three): 2.27% | Reduction in Weight % ([2]; isothermal 40° C., 15 hr, mean of three): 2.83% | Reduction in Weight % ([2]; isothermal 40° C., 18 hr, mean of three): 3.43% | Reduction in Weight % ([2]; isothermal 40° C., 21 hr, mean of three): 4.02% | Reduction in Weight % ([2]; isothermal 40° C., 24 hr, mean of three): 4.58% | Reduction in Weight % ([2]; isothermal 45° C., 1 hr): 0.27% | Reduction in Weight % ([2]; isothermal 45° C., 3 hr): 0.91% | Reduction in Weight % ([2]; isothermal 45° C., 6 hr): 1.97% | Reduction in Weight % ([2]; isothermal 45° C., 9 hr): 2.95% | Reduction in Weight % ([2]; isothermal 45° C., 12 hr): 3.95% | Reduction in Weight % ([2]; isothermal 45° C., 15 hr): 4.98% | Reduction in Weight % ([2]; isothermal 45° C., 18 hr): 6.02% | Reduction in Weight % ([2]; isothermal 45° C., 21 hr): 7.05% | Reduction in Weight % ([2]; isothermal 45° C., 24 hr): 8.01% | Reduction in Weight % ([2]; isothermal 50° C., 1 hr): 0.54% | Reduction in Weight % ([2]; isothermal 50° C., 3 hr): 1.65% | Reduction in Weight % ([2]; isothermal 50° C., 6 hr): 3.35% | Reduction in Weight % ([2]; isothermal 50° C., 9 hr): 5.05% | Reduction in Weight % ([2]; isothermal 50° C., 12 hr): 6.68% | Reduction in Weight % ([2]; isothermal 50° C., 15 hr): 8.35% | Reduction in Weight % ([2]; isothermal 50° C., 18 hr): 10.04% | Reduction in Weight % ([2]; isothermal 50° C., 21 hr): 11.77% | Reduction in Weight % ([2]; isothermal 50° C., 24 hr): 13.43% | Reduction in Weight % ([2]; isothermal 60° C., 1 hr, mean of three): 1.98% | Reduction in Weight % ([2]; isothermal 60° C., 3 hr, mean of three): 5.96% | Reduction in Weight % ([2]; isothermal 60° C., 6 hr, mean of three): 11.90% | Reduction in Weight % ([2]; isothermal 60° C., 9 hr, mean of three): 17.79% | Reduction in Weight % ([2]; isothermal 60° C., 12 hr, mean of three): 23.61% | Reduction in Weight % ([2]; isothermal 60° C., 15 hr, mean of three): 29.37% | Reduction in Weight % ([2]; isothermal 60° C., 18 hr, mean of three): 35.03% | Reduction in Weight % ([2]; isothermal 60° C., 21 hr, mean of three): 40.53% | Reduction in Weight % ([2]; isothermal 60° C., 24 hr, mean of three): 44.74%
